The source of these data is ChEMBL document CHEMBL1201862, “PubChem BioAssay data set” (2004).

The term AC50 denotes the concentration at which the activity in the assay is half-maximal. Usually Ki stands for a dissociation constant, usually derived from enzyme kinetics or from competition with a known ligand. By IC90 is commonly meant the concentration at which the effect reaches the 90% level. The term IC50 denotes the concentration needed to halve the response being measured. The EC50 is the concentration at which the effect is half-maximal.

Assay [1] is described as follows: cells.
The nature of assay [2]: COV362 cell viability loss – plate reader, dry powder, SA12, cytotoxicity control for PAX8 inhibitor project, dose response (AID 743144). Type of assay: functional, cell-based.
The nature of assay [3]: A2780 cell killing – plate reader, dry powder samples, cytotoxicity control, dose response (AID 743046). It counts as functional, cell-based.
Assay [4] can be described thus: OVCAR4 cell viability loss – plate reader, dry powder, SA11, cytotoxicity control for PAX8 inhibitor project, dose response (AID 743150). Particulars: OVCAR-4. Type of assay: functional, cell-based.
The nature of assay [5]: OV-90 cell viability loss – plate reader, dry powder, SA8, PAX8 inhibitor project, dose response (AID 743149). It counts as functional, cell-based.
Assay [6] is described as follows: COV434 cell viability loss – plate reader, dry powder, SA7, cytotoxicity control for PAX8 inhibitor project, dose response (AID 743145). Type of assay: functional, cell-based.
Assay [7] is described as follows: PAX8-dependent cell viability loss – plate reader, dry powder, dose response (AID 743049). Type of assay: functional, cell-based.
The nature of assay [8]: toxicity toward immortalized ovarian surface epithelium – cell-based, plate reader, dry powder samples, cytotoxicity control for PAX8 inhibitor project, dose response (AID 743045). It counts as functional.
Assay [9] is described as follows: IGROV1 cell killing – plate reader, dry powder samples, PAX8 inhibitor project, dose response (AID 743043). Type of assay: functional, cell-based. Particulars: IGROV-1.
Assay [10] in a line: OVCAR-3 cell viability loss – plate reader, dry powder samples, PAX8 inhibitor project, dose response (AID 743044). Type of assay: functional, cell-based.
The nature of assay [11]: inhibitors acting on PAX2 in cells – cell-based, plate reader, dry powder samples, selectivity assay for PAX8 inhibitor project, dose response (AID 743048).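 Note: HEK293 cells carrying a WT1 promoter luciferase reporter driven by expressed Pax2; potency is for inhibition of Pax2 driven reporter signal.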 Type of assay: functional.
In assay [12] the target is fMet-Leu-Phe receptor (Homo sapiens, UniProt P21462). In words: formyl peptide receptor binders – dose response (AID 519). It counts as functional.
Assay [13] is described as follows: inhibitors of non-replicating M. tuberculosis, dose response, luciferase, dry powder (AID 651619). Particulars: Mycobacterium tuberculosis. It counts as functional.
Assay [14] is described as follows: inhibitors of non-replicating M. tuberculosis, dose response, luciferase, dry powder (AID 651620). It counts as functional. Particulars: Mycobacterium tuberculosis.
A short description of assay [15]: viability loss in HEK293 kidney cells – cell-based, cherry-picks, set 5, cytotoxicity control, dose response (AID 1053117). It counts as functional.
Assay [16] is described as follows: viability loss in A549 lung cancer cells – cell-based, cherry-picks, […], cytotoxicity control, dose response (AID 1053119). It counts as functional.
Assay [17] is described as follows: toxicity toward HepG2 liver cells – cell-based, plate reader, cherry-pick, antagonist series, cytotoxicity control, dose response (AID 743416). It counts as functional.
The nature of assay [18]: blockade of melanocortin 4 receptor signaling – cell-based, plate reader, cherry pick, counter-screen for LGR2 antagonist project, dose response (AID 743444).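 Note: transfected HEK 293 cells stimulated with alpha-MSH peptide; potency of inhibitors of the alpha-MSH evoked signal.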 Type of assay: functional. For orientation: A counterscreen serves to expose hits that act by an unwanted route or on another target.
A short description of assay [19]: viability loss in HEK293 cells – cell-based, plate reader, cherry-picked samples, cytotoxicity control, dose response (AID 743446). It counts as functional.
A short description of assay [20]: blockers of bursicon-stimulated LGR2 cAMP reporter – cell-based, HEK293, CRE-luciferase reporter, cherry pick, set 2, dose response (AID 743343).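 Note: transfected cells were stimulated with diluted bursicon conditioned medium after compound addition.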 Type of assay: functional. For orientation: In a reporter assay the amount or activity of a reporter protein is the signal.
The nature of assay [21]: viability loss in HepG2 hepatoma cells – cell-based, cherry-picks, set 5, cytotoxicity control, dose response (AID 1053118). Type of assay: functional.
The nature of assay [22]: A549 cell cytotoxicity, dose response, cytotoxicity control, plate reader, cherry-pick, antagonist series (AID 743412). Type of assay: functional, cell-based.
Assay [23] is described as follows: blockers of FN fibrillogenesis by fibroblasts – AH1F cells, Alexa488-FN fluorescence, cherry-picks, dose response (AID 1035475). Type of assay: functional, cell-based.
A short description of assay [24]: Luminescence Cell-Based Dose Retest to Confirm Inhibitors of Cancer Stem Cells. [Related pubchem assays (depositor defined):AID2717, AID2721]. It counts as functional. Particulars: Homo sapiens.
In assay [25] the target is Disintegrin and metalloproteinase domain-containing protein 17 (Homo sapiens, UniProt P78536). In words: inhibition of ADAM17 substrate cleavage – biochemical, quenched FRET substrate, counter-screen for ADAM10 exosite inhibitor project, dose response (AID 743253).
Assay [26] in a line: potency of ADAM10 substrate cleavage blockers – biochemical, QFRET, dose response (AID 743254).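 Note: ADAM10 enzyme with the DM2 quenched FRET peptide as substrate; EDANS fluorescence gain as the protease cuts the substrate; inhibitor potency against ADAM10 proteolytic activity.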
The target in assay [27] is Paired box protein Pax-8 (Homo sapiens, UniProt Q06710). Put plainly: PAX8 transcriptional activity inhibition in RMG-I – RMG-I cells, luciferase, cherry-pick, dose response (AID 687027).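 Note: luciferase reporter driven by Pax8 target thyroperoxidase promoter measured by SteadyGlo luminescence.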 It counts as functional, cell-based.
Assay [28] can be described thus: OVCAR8 cell viability loss – plate reader, dry powder samples, PAX8 project, dose response (AID 743197). It counts as functional, cell-based. Particulars: OVCAR-8.
Assay [29] is described as follows: CMV-driven luciferase expression suppression in HEK293 – cell-based, luminescence, dry powder, counter-screen for Pax8 inhibitor project, dose response (AID 743020). It counts as functional.
Assay [30] deals with HEK293. In words: cells. Particulars: Homo sapiens.
The test system of assay [31] is HEK293. Put plainly: NOD2 signaling inhibitors in MDP-stimulated cells, cell-based, uHTS, luminescence (AID 2001). It counts as functional. Particulars: Homo sapiens.
Assay [32] deals with T1, Nucleotide-binding oligomerization domain-containing protein 1 (Homo sapiens, UniProt Q9Y239).
T1 sequence (Q9Y239 whole entry): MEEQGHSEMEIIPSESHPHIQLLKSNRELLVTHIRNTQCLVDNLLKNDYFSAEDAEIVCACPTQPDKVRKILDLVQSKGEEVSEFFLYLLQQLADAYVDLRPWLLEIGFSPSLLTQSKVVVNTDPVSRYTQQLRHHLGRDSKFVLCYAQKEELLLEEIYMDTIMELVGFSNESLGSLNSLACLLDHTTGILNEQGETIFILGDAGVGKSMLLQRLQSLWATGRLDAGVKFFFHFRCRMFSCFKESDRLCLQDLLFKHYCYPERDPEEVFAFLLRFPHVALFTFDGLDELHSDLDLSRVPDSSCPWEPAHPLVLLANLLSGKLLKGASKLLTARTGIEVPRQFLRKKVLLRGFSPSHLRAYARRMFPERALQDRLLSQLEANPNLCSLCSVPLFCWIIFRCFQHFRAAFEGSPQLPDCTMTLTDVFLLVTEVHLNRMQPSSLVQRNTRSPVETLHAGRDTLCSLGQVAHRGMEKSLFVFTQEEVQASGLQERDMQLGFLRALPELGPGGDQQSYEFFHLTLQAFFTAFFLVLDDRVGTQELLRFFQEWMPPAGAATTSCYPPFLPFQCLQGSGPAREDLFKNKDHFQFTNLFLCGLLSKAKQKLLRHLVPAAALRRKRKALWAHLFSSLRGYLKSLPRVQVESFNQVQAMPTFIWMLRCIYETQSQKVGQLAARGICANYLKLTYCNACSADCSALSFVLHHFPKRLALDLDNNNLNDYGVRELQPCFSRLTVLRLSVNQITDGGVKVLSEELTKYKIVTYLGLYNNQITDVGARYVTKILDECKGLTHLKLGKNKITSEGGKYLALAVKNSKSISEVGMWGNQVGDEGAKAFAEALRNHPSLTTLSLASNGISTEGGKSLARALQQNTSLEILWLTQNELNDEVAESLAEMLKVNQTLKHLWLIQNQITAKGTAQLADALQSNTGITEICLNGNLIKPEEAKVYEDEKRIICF
Put plainly: blockers of NOD1 pathway activity – revised, SAR follow-up (AID 2333). Type of assay: functional.

A short description of assay [33]: Shn3 3'UTR reporter signal decrease – cell-based, Clone20 osteoblasts, firefly luciferase, cherry-pick, set 2, Schnurri-3 inhibitor project, dose response (AID 720490).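 Note: actives lower the luminescence signal as inhibitors.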 It counts as functional.
The target of assay [34] is Tumor necrosis factor (Homo sapiens, UniProt P01375). Put plainly: analog potency on TNFa NF-kB signaling – cell-based, revised, SAR follow-up (AID 2337). Type of assay: functional.
A short description of assay [35]: loss of viability in HepG2 cells – cell-based, CellTiter-Glo, cherry-picked, cytotoxicity control for Shn3 inhibitor project, dose response (AID 624134). It counts as functional.
Assay [36] deals with HEK293. Put plainly: inhibition of NOD1-driven NF-kB reporter – cell-based, luminescence, uHTS, primary screen (AID 1578). Type of assay: functional. Particulars: Homo sapiens.
Assay [37] is described as follows: non-specific 3'UTR reporter inhibition in Clone20-Shn3RL – cell-based, Renilla luciferase, cherry-picked, counter-screen for Shn3 inhibitor project, dose response (AID 624133). Type of assay: functional.
For assay [38], the system named is HEK293. In words: cells. Type of assay: functional, cell-based. Particulars: Homo sapiens.
Assay [39] concerns HEK293. Put plainly: cells. It counts as functional, cell-based. Particulars: Homo sapiens. This is another data set of the same source.
Assay [40] is described as follows: reduction of Shn3 3'UTR-driven luciferase in osteoblasts – cell-based, Clone20 osteoblasts, firefly luciferase, cherry-picked, dose response (AID 624132).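 Note: firefly luciferase luminescence from reporter carrying the Shn3 3'UTR in osteoblasts.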 Type of assay: functional.

The source made the active and inactive calls.

Disintegrin and metalloproteinase domain-containing protein 17, sequence (P78536 whole entry, the tested form may be a part): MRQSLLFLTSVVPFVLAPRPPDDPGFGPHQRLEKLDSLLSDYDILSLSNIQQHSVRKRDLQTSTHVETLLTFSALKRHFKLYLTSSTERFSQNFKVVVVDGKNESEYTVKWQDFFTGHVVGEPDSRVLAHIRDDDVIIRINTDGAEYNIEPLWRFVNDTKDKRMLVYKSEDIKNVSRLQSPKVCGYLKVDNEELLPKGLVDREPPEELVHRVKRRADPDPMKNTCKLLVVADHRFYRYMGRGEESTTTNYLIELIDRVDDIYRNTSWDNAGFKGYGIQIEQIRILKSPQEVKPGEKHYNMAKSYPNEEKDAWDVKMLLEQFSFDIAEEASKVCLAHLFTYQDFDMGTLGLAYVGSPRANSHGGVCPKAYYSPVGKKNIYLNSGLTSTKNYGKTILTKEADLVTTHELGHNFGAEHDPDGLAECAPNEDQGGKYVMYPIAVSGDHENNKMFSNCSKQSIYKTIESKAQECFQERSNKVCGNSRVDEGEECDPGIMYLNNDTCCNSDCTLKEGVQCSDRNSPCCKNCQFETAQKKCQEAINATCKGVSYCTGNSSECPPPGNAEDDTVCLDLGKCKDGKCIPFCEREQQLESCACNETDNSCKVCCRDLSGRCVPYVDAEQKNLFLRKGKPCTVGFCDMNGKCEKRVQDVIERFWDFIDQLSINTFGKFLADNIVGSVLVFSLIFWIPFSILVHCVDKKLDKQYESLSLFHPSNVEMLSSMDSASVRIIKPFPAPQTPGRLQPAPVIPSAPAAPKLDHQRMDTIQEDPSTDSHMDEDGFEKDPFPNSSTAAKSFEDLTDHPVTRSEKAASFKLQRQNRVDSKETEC
Paired box protein Pax-8, sequence (Q06710 whole entry): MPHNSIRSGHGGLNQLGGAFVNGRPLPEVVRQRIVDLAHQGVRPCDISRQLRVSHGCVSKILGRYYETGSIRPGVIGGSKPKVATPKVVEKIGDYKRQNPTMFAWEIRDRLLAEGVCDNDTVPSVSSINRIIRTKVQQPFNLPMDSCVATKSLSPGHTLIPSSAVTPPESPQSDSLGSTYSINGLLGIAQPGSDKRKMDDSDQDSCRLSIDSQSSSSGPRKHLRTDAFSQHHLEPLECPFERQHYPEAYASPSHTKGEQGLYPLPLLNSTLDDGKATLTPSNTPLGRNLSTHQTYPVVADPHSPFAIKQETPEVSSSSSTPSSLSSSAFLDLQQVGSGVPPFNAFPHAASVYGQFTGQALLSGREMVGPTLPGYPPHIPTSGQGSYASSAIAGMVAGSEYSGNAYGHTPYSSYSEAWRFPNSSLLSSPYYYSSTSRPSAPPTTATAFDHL
Tumor necrosis factor, sequence (P01375 whole entry): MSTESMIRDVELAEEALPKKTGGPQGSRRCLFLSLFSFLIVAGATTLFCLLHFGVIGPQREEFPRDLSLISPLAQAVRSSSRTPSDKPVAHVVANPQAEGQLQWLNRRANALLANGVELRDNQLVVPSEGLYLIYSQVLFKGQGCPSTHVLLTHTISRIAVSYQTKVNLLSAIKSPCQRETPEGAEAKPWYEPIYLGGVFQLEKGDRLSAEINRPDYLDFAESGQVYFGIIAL
fMet-Leu-Phe receptor, sequence (P21462 whole entry): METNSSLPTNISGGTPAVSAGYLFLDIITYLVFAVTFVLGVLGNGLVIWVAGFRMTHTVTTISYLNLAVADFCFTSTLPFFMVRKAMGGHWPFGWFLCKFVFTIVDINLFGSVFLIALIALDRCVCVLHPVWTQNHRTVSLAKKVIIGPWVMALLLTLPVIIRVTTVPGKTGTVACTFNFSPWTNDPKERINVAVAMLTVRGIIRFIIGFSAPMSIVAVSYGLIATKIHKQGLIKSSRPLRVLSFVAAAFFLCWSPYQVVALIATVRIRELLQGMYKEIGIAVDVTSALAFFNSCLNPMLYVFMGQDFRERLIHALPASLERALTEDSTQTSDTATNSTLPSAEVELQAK

With `COc1ccc(C2C3=C(CCCC3=O)N(CC(=O)O)C3=C2C(=O)CCC3)cc1`, the AC50 in assay [1] is 5.91 µM (active).

`COc1ccc(OC)c2sc(N(CCCN(C)C)C(=O)CCS(=O)(=O)c3ccccc3)nc12`: the AC50 was 12 µM (active) in [2]; 40 µM (active) in [3]; 22.8 µM (active) in assay [4]; 17.3 µM (active) in assay [5]; 5.66 µM (active) in [6]; 13.2 µM (active) in [7]. Besides, the AC50 in [8] is 14.5 µM (active); in assay [9] it was 25.5 µM (active); in assay [10], 7.2 µM (active); in assay [11], 56.3 µM (active).

Turning to `CCOc1cc(C2C(C(=O)c3ccco3)=C(O)C(=O)N2CCc2ccccc2)ccc1O` (stereo not drawn), in assay [12], the Ki is > 66.7 µM (inactive).

For the compound `c1ccc(-c2nnc(SCc3cccnc3)o2)cc1`, the IC90 in assay [13] and in [14] was 8 µM (active) each time.

On to `C[C@@H]1CN([C@H](C)CO)C(=O)c2cccc(NC(=O)Nc3ccc(C(F)(F)F)cc3)c2O[C@@H]1CN(C)C(=O)Nc1cccc2ccccc12`, for which the AC50 was 29.2 µM (active) in [15]; 24.3 µM (active) in [16]; 19.6 µM (active) in [17]; 14.3 µM (active) in [18]; 14.8 µM (active) in [19]; 19.4 µM (active) in [20]. Besides, the AC50 in assay [21] is 32.5 µM (active); in assay [22], 16.4 µM (active); in assay [23] it was 7.47 µM (active).

Take `Cc1ccc(S(=O)(=O)Nc2ccc(-c3csc(-c4ccccc4)n3)cc2)cc1`: the AC50 in assay [24] is 3.5 µM (active). The IC50 in assay [25] and in assay [26] was > 69.5 µM (inactive) throughout.

In the case of `C[C@@H]1CN([C@H](C)CO)C(=O)c2cc(NS(=O)(=O)c3ccccc3)ccc2O[C@@H](C)CCCCO[C@H]1CN(C)Cc1ccc(C(F)(F)F)cc1`, the AC50 was 5.82 µM (active) in [27]; 55.1 µM (active) in assay [8]; 35.8 µM (active) in assay [9]; 17.6 µM (active) in assay [28]; 29.8 µM (active) in assay [29]; 15.7 µM (active) in assay [10].

As to `CC1Cc2cc(S(=O)(=O)N3CCN(c4ccc(Cl)cc4)CC3)ccc2N1C(=O)C1CC1` (stereo not drawn), the IC50 in assay [30] was > 20 µM (inactive); in [31], 4.43 µM (active); in assay [32], 5.6 µM (active); in [34], 9.52 µM (active); in assay [38] it was 2.22 µM (active); in assay [39], > 20 µM (inactive). The AC50 in assay [33] is 5 µM (active); in assay [35], 64.6 µM (active); in [37], 25.4 µM (active); in assay [40], 4.26 µM (active). For the same compound, the EC50 in [36] was > 20 µM (inactive).
